According to ChEMBL document CHEMBL1909593, “Identification of novel plasmin inhibitors possessing nitrile moiety as warhead” (Bioorg Med Chem Lett, 2011):

Assays:
Plasma kallikrein [1] = molecular target: T1, Plasma kallikrein (Homo sapiens, UniProt P03952); assay: Inhibition of plasma kallikrein at 1000 uM
[2] = molecular target: Urokinase-type plasminogen activator (Homo sapiens) (UniProt P00749); assay: Inhibition of urokinase at 200 uM
Plasminogen [3] = molecular target: T2, Plasminogen (Homo sapiens, UniProt P00747); assay: Inhibition of plasmin
[4] = molecular target: Urokinase-type plasminogen activator (Homo sapiens) (UniProt P00749); assay: Inhibition of urokinase at 1000 uM
Plasma kallikrein [5] = molecular target: T1, Plasma kallikrein; assay: Inhibition of plasma kallikrein
[6] = molecular target: Urokinase-type plasminogen activator (Homo sapiens) (UniProt P00749); assay: Inhibition of urokinase at 500 uM
Plasma kallikrein [7] = molecular target: T1, Plasma kallikrein; assay: Inhibition of plasma kallikrein at 250 uM
Plasminogen [8] = molecular target: T2, Plasminogen; assay: Inhibition of plasmin at 250 uM
[9] = molecular target: Urokinase-type plasminogen activator (Homo sapiens) (UniProt P00749); assay: Inhibition of urokinase at 400 uM

T2 sequence (P00747 97-580 limits assumed): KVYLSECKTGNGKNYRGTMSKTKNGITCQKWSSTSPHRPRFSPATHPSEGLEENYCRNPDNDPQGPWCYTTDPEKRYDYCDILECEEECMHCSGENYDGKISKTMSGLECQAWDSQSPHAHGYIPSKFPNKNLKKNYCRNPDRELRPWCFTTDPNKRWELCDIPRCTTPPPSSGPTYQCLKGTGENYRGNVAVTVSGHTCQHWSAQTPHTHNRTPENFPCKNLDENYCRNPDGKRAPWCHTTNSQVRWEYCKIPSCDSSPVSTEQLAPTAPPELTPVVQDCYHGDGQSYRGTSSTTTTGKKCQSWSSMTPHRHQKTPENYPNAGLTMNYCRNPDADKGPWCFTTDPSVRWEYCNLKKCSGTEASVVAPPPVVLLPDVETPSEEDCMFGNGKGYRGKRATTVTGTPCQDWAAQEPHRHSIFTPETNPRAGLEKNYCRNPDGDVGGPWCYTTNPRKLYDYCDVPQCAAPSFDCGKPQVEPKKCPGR
T2 sequence (P00747 581-810 limits assumed): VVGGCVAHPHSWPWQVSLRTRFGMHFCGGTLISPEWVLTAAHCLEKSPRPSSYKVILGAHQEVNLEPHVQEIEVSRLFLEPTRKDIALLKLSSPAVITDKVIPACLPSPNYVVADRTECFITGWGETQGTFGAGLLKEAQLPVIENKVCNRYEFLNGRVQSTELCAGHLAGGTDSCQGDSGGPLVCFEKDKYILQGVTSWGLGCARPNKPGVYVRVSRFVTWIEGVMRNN
T1 sequence (P03952 20-390 limits assumed): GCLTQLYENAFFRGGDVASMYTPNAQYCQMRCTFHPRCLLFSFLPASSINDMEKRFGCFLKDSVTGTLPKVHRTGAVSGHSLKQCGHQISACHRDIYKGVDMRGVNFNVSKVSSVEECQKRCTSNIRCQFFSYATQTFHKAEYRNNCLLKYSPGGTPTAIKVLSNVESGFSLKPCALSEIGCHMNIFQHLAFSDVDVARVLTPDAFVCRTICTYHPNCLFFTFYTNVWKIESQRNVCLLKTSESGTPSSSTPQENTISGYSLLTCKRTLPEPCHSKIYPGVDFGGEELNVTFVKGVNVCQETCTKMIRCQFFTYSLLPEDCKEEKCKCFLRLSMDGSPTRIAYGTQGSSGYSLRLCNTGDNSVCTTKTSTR
T1 sequence (P03952 391-638 limits assumed): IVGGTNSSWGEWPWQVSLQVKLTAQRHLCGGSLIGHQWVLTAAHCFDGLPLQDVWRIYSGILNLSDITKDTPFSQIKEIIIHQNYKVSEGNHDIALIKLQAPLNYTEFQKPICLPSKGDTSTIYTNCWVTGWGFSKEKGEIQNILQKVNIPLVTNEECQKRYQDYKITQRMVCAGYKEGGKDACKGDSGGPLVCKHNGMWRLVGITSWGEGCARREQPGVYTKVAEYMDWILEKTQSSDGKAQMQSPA

inhibition (Plasma kallikrein [1]) [%]	inhibition [2] [%]	IC50 (Plasminogen [3]) [µM]	inhibition [4] [%]	IC50 (Plasma kallikrein [5]) [µM]	also measured	Structure (SMILES)
44	0	370	–	–	–	N#C[C@H](CCCCN)NC(=O)c1ccc(OCc2ccncc2)c(NC(=O)CCc2c[nH]c3ccccc23)c1
0	–	290	0	–	–	CC[C@@H](C)[C@@H](N)C(=O)N[C@@H](Cc1ccccc1)C(=O)N[C@@H](CCCCN)C(N)=O
–	–	220	–	380	inhibition [6]: 20%	N#C[C@H](CCCCN)NC(=O)c1ccc(OCc2ccncc2)c(NC(=O)Cc2ccc3ccccc3c2)c1
–	0	–	–	–	inhibition (Plasma kallikrein [7]): 22%; inhibition (Plasminogen [8]): 0%	COc1ccc(C(=O)N[C@H](C#N)CCCCN)cc1NC(=O)CCc1cn(Cc2ccc(F)cc2)c2ccccc12
45	–	240	16	–	–	N#C[C@H](CCCCN)NC(=O)c1ccc(OCc2ccncc2)cc1
–	0	220	–	910	–	CC(C)(C)OC(=O)n1cc(CCC(=O)Nc2cc(C(=O)N[C@H](C#N)CCCCN)ccc2OCc2ccncc2)c2ccccc21
11	–	590	19	–	–	N#C[C@H](CCCCN)NC(=O)c1ccc(OCc2ccncc2)c(NC(=O)Cc2ccc(F)cc2)c1
0	–	140	–	–	inhibition [9]: 0%	N#C[C@H](CCCCN)NC(=O)c1ccc(OCc2ccncc2)c(NC(=O)CCc2cn(Cc3ccc(F)cc3)c3ccccc23)c1
38	–	78	15	–	–	CC[C@@H](C)[C@@H](N)C(=O)N[C@@H](Cc1ccccc1)C(=O)N[C@H](C#N)CCCCN
–	–	570	–	680	inhibition [6]: 16%	N#C[C@H](CCCCN)NC(=O)c1ccc(OCc2ccncc2)c(NC(=O)Cc2cccc3ccccc23)c1
